Results published in patent US20230240332A1, “METHOD FOR PREPARING AMINO ACID GRANULE FROM FERMENTATION BROTH” (CJ CHEILJEDANG CORPORATION, priority 2020, published 2023).

Experiment: Stability of tryptophan in fermentation broth with calcium added at molar ratio 0.4
Assay type: physicochemical
Settings: calcium added at molar ratio of 0.4; increase in pH
Procedure: , respectively, in the same manner as in Examples 1-1 to 1-3 except that a tryptophan-containing fermentation broth having the composition disclosed in Table 2 was used, and the pH was 8.8 and 9.0, respectively. The sample of Comparative Example 2 was prepared by concentrating the tryptophan-containing fermentation broth without adding calcium hydroxide to the tryptophan-containing fermentation broth. […] The fermentation broth to which the slurry was added was concentrated to a degree of concentration of 30% (w/w) in Example 1-4 and a degree of concentration of 35% (w/w) in Example 1-5. It was confirmed that the fermentation broth gelled and lost fluidity when concentrated to a higher degree of concentration. At this time, in the case of the fermentation broth to which a slurry was not added, only a degree of concentration of about 25.5% (w/w) was achieved.

## N[C@@H](Cc1c[nH]c2ccccc12)C(=O)O [tryptophan]
  decomposition of tryptophan: decomposed into tryptamine, indole-acetate, and anthranilic acid
